Source: article PMC11999280, “Design and screening of novel endosomal escape compounds that enhance functional delivery of oligonucleotides in vitro” (Molecular Therapy. Nucleic Acids, 2025)

How the values were obtained:
Type in all cases: cell-based
[1] = system: mCherry-GAL9 expressing 16HBE cells; experiment: GAL9 recruitment assay, 16HBE; settings: calculated mean from >3 independent exp.
Method: (§1) Experiments assessing GAL9 localization as an indicator for endosomal remodeling were performed as previously described[15] using 8× stablemCherry-GAL9 expressing cell lines, SHSY5Y, U2OS, 16HBE, NCI-H358, HuH7, HepG2, HEK293, and HeLa. For mCherry-GAL9 recruitment, 3,000 or 6,500 cells/well (depending upon cell line) were seeded into 384-well CellCarrier Ultra plates 24 h prior to treatment (PerkinElmer, catalog no. 6007558). An Echo 655T acoustic dispenser (Labcyte) was used for EEE dose-response preparation by transferring to the cell plate. At assay endpoints, cells were PBS washed, 4% paraformaldehyde fixed at room temperature […] (VWR, catalog no. 9713.1000), and nuclei stained with PBS +1 μg/mL Hoechst 33342 (Thermo Fisher Scientific, catalog no. H21492).
(§2) Imaging was performed using a spinning-disk confocal microscope (Yokogawa: CV8000) with a ×20w objective (numerical aperture 1.0). Cells and mCherry-GAL9 structure identification and quantification were done using Columbus image-analysis software (PerkinElmer version 2.9.0). Data processing was done using Spotfire (Tibco version 11.4) and Prism (GraphPad version 9.1.0). Image panels were assembled using the FigureJ plugin for FIJI.[43] All mCherry-GAL9 experiments were performed three times (N = 3) with duplicated wells per treatment (n = 2).

[2] = system: mCherry-GAL9 expressing HEK293 cells; experiment: GAL9 recruitment assay, HEK293; settings: calculated mean from >3 independent exp.
Method: as §1, §2

[3] = system: mCherry-GAL9 expressing HeLa cells; experiment: GAL9 recruitment assay, HeLa; settings: calculated mean from >3 independent exp.
Method: as §1, §2

[4] = system: mCherry-GAL9 expressing HepG2 cells; experiment: GAL9 recruitment assay, HepG2; settings: calculated mean from >3 independent exp.
Method: as §1, §2

[5] = system: mCherry-GAL9 expressing HuH7 cells; experiment: GAL9 recruitment assay, HuH7; settings: calculated mean from >3 independent exp.
Method: as §1, §2

[6] = system: mCherry-GAL9 expressing NCI-H358 cells; experiment: GAL9 recruitment assay, NCI-H358; settings: calculated mean from >3 independent exp.
Method: as §1, §2

[7] = system: mCherry-GAL9 expressing SHSY5Y cells; experiment: GAL9 recruitment assay, SHSY5Y; settings: calculated mean from >3 independent exp.
Method: as §1, §2

[8] = system: mCherry-GAL9 expressing U2OS cells; experiment: GAL9 recruitment assay, U2OS; settings: calculated mean from >3 independent exp.
Method: as §1, §2

[9] = system: HeLa_Luc705 cells (pLuc/705 splice-switching reporter); experiment: Functional 705-SSO delivery, luciferase splice-switching assay; settings: HeLa-Luc705 + 2 µM SSO, mean from >3 independent experiments
Source text: Therefore, next, we functionally screened the SSO delivery in the HeLa_Luc705 reporter cell line. HeLa_Luc705 carries a pLuc/705 splice-switching reporter luciferase gene interrupted by a mutated β-globin intron, which creates a preferentially used cryptic 5′ splice site leading to aberrant splicing. Functional SSO delivery masks the cryptic site, redirecting the splicing machinery to the right splicing site, allowing the measurement of luciferase expression (Figure S1).[25]^,[26]^,[27]^,[28] We used SSO transfection with LF2000 as transfection control and the previously published endosomal escape enhancer CMP05 (here, EEE2) as positive control.[15]
For the assessment of functional SSO therapeutics, a HeLa_Luc705 cell line was grown in DMEM media supplemented with 10% fetal bovine serum (FBS). For most treatments, 10,000 cells/well were seeded in a 96-well plate, 24 h pre-incubated with 1- to 2-μM oligonucleotide, and then treated at the described EEE concentration. At 24 h post-treatment, cells were PBS rinsed and collected for further analysis (treatments and incubation times changed accordingly to the experiment design). Luciferase readout was performed as previously described,[15] using a GloMax 96-well plate microplate luminometer (Promega) immediately after adding 30 μL auto-injected luciferin substrate (Promega Firefly Luciferase Assay System; Thermo Scientific, catalog no. 16174) in a white-walled 96-well plate containing 30 μL 0.1% Triton X-100 (Sigma-Aldrich) cell lysed. Photon exposure time and delay were set to 10 and 2 s after injection. LF2000 was used as the transfection reagent control (Thermo Scientific, catalog no. 11668019). For EEE experiments using 1 or 2 μM SSOs, the control was prepared using lipofection with 100–200 nM SSO; this is to avoid complex induced cell toxicity.
705-SSO was purchased from and synthesized by Integrated DNA Technologies. The 705-SSO sequence was previously published, containing 2′-O-methylated bases and only phosphorothioate-saturated backbone linkages were included.[15] The 705-SSO was high-performance liquid chromatography purified, shipped, and stored in IDTE buffer (10 mM Tris, 0.1 mM EDTA).

## CCCN1CCC(n2cc(Nc3ncc(F)c(-n4ccc5c(C#N)cccc54)n3)c(OC)n2)CC1 [EEE10]
[1]; EEE 0.31 µM
  Gal9 response compared to reference: 0.010
[1]; EEE 0.62 µM
  Gal9 response compared to reference: 0.011
[1]; EEE 1.25 µM
  Gal9 response compared to reference: 0.028
[1]; EEE 2.5 µM
  Gal9 response compared to reference: 0.183
[1]; EEE 5 µM
  Gal9 response compared to reference: 0.522
[1]; EEE 10 µM
  Gal9 response compared to reference: 0.746
[2]; EEE 0.31 µM
  Gal9 response compared to reference: 0.023
[2]; EEE 0.62 µM
  Gal9 response compared to reference: 0.026
[2]; EEE 1.25 µM
  Gal9 response compared to reference: 0.051
[2]; EEE 2.5 µM
  Gal9 response compared to reference: 0.379
[2]; EEE 5 µM
  Gal9 response compared to reference: 0.672
[2]; EEE 10 µM
  Gal9 response compared to reference: 0.647
[3]; EEE 0.31 µM
  Gal9 response compared to reference: 0.005
[3]; EEE 0.62 µM
  Gal9 response compared to reference: 0.005
[3]; EEE 1.25 µM
  Gal9 response compared to reference: 0.005
[3]; EEE 2.5 µM
  Gal9 response compared to reference: 0.145
[3]; EEE 5 µM
  Gal9 response compared to reference: 0.463
[3]; EEE 10 µM
  Gal9 response compared to reference: 0.588
[4]; EEE 0.31 µM
  Gal9 response compared to reference: 0.008
[4]; EEE 0.62 µM
  Gal9 response compared to reference: 0.007
[4]; EEE 1.25 µM
  Gal9 response compared to reference: 0.007
[4]; EEE 2.5 µM
  Gal9 response compared to reference: 0.008
[4]; EEE 5 µM
  Gal9 response compared to reference: 0.026
[4]; EEE 10 µM
  Gal9 response compared to reference: 0.371
[5]; EEE 0.31 µM
  Gal9 response compared to reference: 0.011
[5]; EEE 0.62 µM
  Gal9 response compared to reference: 0.009
[5]; EEE 1.25 µM
  Gal9 response compared to reference: 0.016
[5]; EEE 2.5 µM
  Gal9 response compared to reference: 0.121
[5]; EEE 5 µM
  Gal9 response compared to reference: 0.252
[5]; EEE 10 µM
  Gal9 response compared to reference: 0.414
[6]; EEE 0.31 µM
  Gal9 response compared to reference: 0.017
[6]; EEE 0.62 µM
  Gal9 response compared to reference: 0.016
[6]; EEE 1.25 µM
  Gal9 response compared to reference: 0.031
[6]; EEE 2.5 µM
  Gal9 response compared to reference: 0.194
[6]; EEE 5 µM
  Gal9 response compared to reference: 0.633
[6]; EEE 10 µM
  Gal9 response compared to reference: 0.662
[7]; EEE 0.31 µM
  Gal9 response compared to reference: 0.015
[7]; EEE 0.62 µM
  Gal9 response compared to reference: 0.024
[7]; EEE 1.25 µM
  Gal9 response compared to reference: 0.123
[7]; EEE 2.5 µM
  Gal9 response compared to reference: 0.877
[7]; EEE 5 µM
  Gal9 response compared to reference: 0.887
[7]; EEE 10 µM
  Gal9 response compared to reference: 0.717
[8]; EEE 0.31 µM
  Gal9 response compared to reference: 0.011
[8]; EEE 0.62 µM
  Gal9 response compared to reference: 0.012
[8]; EEE 1.25 µM
  Gal9 response compared to reference: 0.016
[8]; EEE 2.5 µM
  Gal9 response compared to reference: 0.076
[8]; EEE 5 µM
  Gal9 response compared to reference: 0.260
[8]; EEE 10 µM
  Gal9 response compared to reference: 0.512
[9]; EEE 2.5 - 3 µM
  Luciferase expression compared to reference: 0.565

## CCOc1nn(C2CCN(C)CC2)cc1Nc1ncc(F)c(-n2ccc3c(C#N)cccc32)n1 [EEE13]
[1]; EEE 0.31 µM
  Gal9 response compared to reference: 0.009
[1]; EEE 0.62 µM
  Gal9 response compared to reference: 0.011
[1]; EEE 1.25 µM
  Gal9 response compared to reference: 0.010
[1]; EEE 2.5 µM
  Gal9 response compared to reference: 0.013
[1]; EEE 5 µM
  Gal9 response compared to reference: 0.044
[1]; EEE 10 µM
  Gal9 response compared to reference: 0.306
[2]; EEE 0.31 µM
  Gal9 response compared to reference: 0.018
[2]; EEE 0.62 µM
  Gal9 response compared to reference: 0.024
[2]; EEE 1.25 µM
  Gal9 response compared to reference: 0.021
[2]; EEE 2.5 µM
  Gal9 response compared to reference: 0.020
[2]; EEE 5 µM
  Gal9 response compared to reference: 0.032
[2]; EEE 10 µM
  Gal9 response compared to reference: 0.097
[3]; EEE 0.31 µM
  Gal9 response compared to reference: 0.005
[3]; EEE 0.62 µM
  Gal9 response compared to reference: 0.004
[3]; EEE 1.25 µM
  Gal9 response compared to reference: 0.004
[3]; EEE 2.5 µM
  Gal9 response compared to reference: 0.003
[3]; EEE 5 µM
  Gal9 response compared to reference: 0.007
[3]; EEE 10 µM
  Gal9 response compared to reference: 0.023
[4]; EEE 0.31 µM
  Gal9 response compared to reference: 0.008
[4]; EEE 0.62 µM
  Gal9 response compared to reference: 0.007
[4]; EEE 1.25 µM
  Gal9 response compared to reference: 0.008
[4]; EEE 2.5 µM
  Gal9 response compared to reference: 0.009
[4]; EEE 5 µM
  Gal9 response compared to reference: 0.006
[4]; EEE 10 µM
  Gal9 response compared to reference: 0.007
[5]; EEE 0.31 µM
  Gal9 response compared to reference: 0.010
[5]; EEE 0.62 µM
  Gal9 response compared to reference: 0.007
[5]; EEE 1.25 µM
  Gal9 response compared to reference: 0.011
[5]; EEE 2.5 µM
  Gal9 response compared to reference: 0.015
[5]; EEE 5 µM
  Gal9 response compared to reference: 0.012
[5]; EEE 10 µM
  Gal9 response compared to reference: 0.046
[6]; EEE 0.31 µM
  Gal9 response compared to reference: 0.019
[6]; EEE 0.62 µM
  Gal9 response compared to reference: 0.018
[6]; EEE 1.25 µM
  Gal9 response compared to reference: 0.013
[6]; EEE 2.5 µM
  Gal9 response compared to reference: 0.014
[6]; EEE 5 µM
  Gal9 response compared to reference: 0.015
[6]; EEE 10 µM
  Gal9 response compared to reference: 0.038
[7]; EEE 0.31 µM
  Gal9 response compared to reference: 0.014
[7]; EEE 0.62 µM
  Gal9 response compared to reference: 0.015
[7]; EEE 1.25 µM
  Gal9 response compared to reference: 0.012
[7]; EEE 2.5 µM
  Gal9 response compared to reference: 0.013
[7]; EEE 5 µM
  Gal9 response compared to reference: 0.044
[7]; EEE 10 µM
  Gal9 response compared to reference: 0.421
[8]; EEE 0.31 µM
  Gal9 response compared to reference: 0.014
[8]; EEE 0.62 µM
  Gal9 response compared to reference: 0.011
[8]; EEE 1.25 µM
  Gal9 response compared to reference: 0.010
[8]; EEE 2.5 µM
  Gal9 response compared to reference: 0.014
[8]; EEE 5 µM
  Gal9 response compared to reference: 0.023
[8]; EEE 10 µM
  Gal9 response compared to reference: 0.072
[9]; EEE 5 µM
  Luciferase expression compared to reference: 1.314
[9]; EEE 1-1.25 µM
  Luciferase expression compared to reference: 0.743
[9]; EEE 2.5 - 3 µM
  Luciferase expression compared to reference: 0.692
